Laboratory results from publication PMC6920777, “Pharmacokinetic Alteration of Paclitaxel by Ferulic Acid Derivative” (Pharmaceutics, 2019).
Like-named read-outs stand apart in the source and are kept apart here. One block for each compound: values may come before it.

Columns and labels:
[1] = tested on: MCF-7/ADR cells; assay: Toxic effect of each derivative and VER alone (cell survival); type: cell-based; details: Homo sapiens, NCI/ADR-RES, 2 h incubation, read-out: cell survival ratio; for viability at 5 µM: mean (SD); for viability at 10 µM / viability at 25 µM / viability at 50 µM / viability at 100 µM: mean
Protocol: The effect of eight FA derivatives on cytotoxicity was studied in P-gp overexpressed human breast cancer cells (MCF-7/ADR) using the SRB assay. The details of the cell culture condition and the assay method were presented in our previous reports. […] The assay was performed in triplicate. […]
Data are presented as mean ± SD.
The numerical data were represented the cell survival ratio.

[2] = molecular target: T1, human P-gp membranes (Homo sapiens, UniProt P08183); assay: Human P-glycoprotein ATPase activity assay; type: biochemical; details: for P-gp ATPase activity, ratio of blank (control): human P-gp membranes
T1 construct: purchased
T1 sequence (P08183 whole entry): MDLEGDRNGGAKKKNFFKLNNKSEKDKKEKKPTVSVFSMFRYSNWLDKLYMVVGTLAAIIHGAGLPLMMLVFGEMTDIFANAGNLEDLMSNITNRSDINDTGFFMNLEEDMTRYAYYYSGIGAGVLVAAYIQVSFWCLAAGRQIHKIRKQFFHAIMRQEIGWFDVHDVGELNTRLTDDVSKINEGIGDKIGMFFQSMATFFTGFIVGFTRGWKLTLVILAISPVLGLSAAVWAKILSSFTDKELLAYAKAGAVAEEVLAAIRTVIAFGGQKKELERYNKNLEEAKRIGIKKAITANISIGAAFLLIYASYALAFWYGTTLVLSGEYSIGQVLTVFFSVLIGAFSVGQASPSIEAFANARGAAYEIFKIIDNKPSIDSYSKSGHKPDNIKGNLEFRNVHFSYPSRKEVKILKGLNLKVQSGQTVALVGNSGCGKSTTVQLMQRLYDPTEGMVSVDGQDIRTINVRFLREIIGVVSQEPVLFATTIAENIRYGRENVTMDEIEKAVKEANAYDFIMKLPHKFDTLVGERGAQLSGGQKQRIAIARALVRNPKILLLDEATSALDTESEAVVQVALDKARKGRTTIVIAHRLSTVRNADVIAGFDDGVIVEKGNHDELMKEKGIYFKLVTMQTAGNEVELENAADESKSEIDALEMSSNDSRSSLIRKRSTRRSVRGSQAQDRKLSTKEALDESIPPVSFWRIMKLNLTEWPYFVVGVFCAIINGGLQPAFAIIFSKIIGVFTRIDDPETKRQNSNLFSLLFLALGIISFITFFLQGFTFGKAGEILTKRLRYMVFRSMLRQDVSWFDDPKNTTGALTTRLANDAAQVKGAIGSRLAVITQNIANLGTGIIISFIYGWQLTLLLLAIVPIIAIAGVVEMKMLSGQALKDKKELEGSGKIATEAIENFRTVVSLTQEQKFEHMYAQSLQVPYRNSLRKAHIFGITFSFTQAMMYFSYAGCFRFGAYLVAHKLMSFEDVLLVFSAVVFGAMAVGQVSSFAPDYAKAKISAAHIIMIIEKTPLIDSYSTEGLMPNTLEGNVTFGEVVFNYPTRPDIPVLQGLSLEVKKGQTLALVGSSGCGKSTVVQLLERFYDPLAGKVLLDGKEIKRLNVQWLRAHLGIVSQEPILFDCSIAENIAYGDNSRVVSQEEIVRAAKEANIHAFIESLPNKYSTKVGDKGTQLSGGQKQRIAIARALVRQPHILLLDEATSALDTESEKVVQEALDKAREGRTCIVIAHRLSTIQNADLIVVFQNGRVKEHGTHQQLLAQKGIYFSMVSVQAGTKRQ
Protocol: The ATPase activities were expressed as the rate of phosphate release per milligram of membrane protein and converted to the relative ratio versus the control. This assay was performed in duplicate.

[3] = tested on: MCF-7/ADR cells; assay: [3H]-daunomycin efflux study; type: cell-based, human
Protocol: (§1) The methods for [^3H]-DNM accumulation and efflux studies were reported previously. […] The experiments were performed in triplicate.
(§2) [^3H]-DNM uptake and efflux were determined after the incubation with each derivative (100 µM) for 2 h and 1 h, respectively. […] Control represents accumulation or efflux of tritium labeled DNM alone.

[4] = tested on: MCF-7/ADR cells; assay: Cytotoxicity of DNM with FA derivatives, SRB assay; type: cell-based, human; details: for IC50 of DNM as fraction of negative control (DNM alone) value: derivative 100 µM
Protocol: The effect of eight FA derivatives on cytotoxicity was studied in P-gp overexpressed human breast cancer cells (MCF-7/ADR) using the SRB assay. The details of the cell culture condition and the assay method were presented in our previous reports. […] The assay was performed in triplicate.

[5] = tested on: MCF-7/ADR cells; assay: [3H]-daunomycin accumulation study; type: cell-based, human; details: 100 µM, 2 h incubation, mean ± SD, triplicate
Protocol: as §1, §2

[6] = Pharmacokinetic study of oral PTX alone or co-administered with compound 5c; type: in vivo, male Sprague-Dawley rats
Protocol: The pharmacokinetic (PK) study was performed using male Sprague-Dawley rats (6 weeks old and 200 g–235 g) commercially available from Orient Bio (Seongnam, Korea). All animal procedures were approved by the Institutional Animal Care and Use Committee of Ewha Womans University (No. 2012-01-019, approved on 3 April 2012), Republic of Korea.
Rats were divided into the following 4 groups: Oral administration (PO) of PTX (25 mg/kg) alone and co-administration of PTX (25 mg/kg) with compound 5c at three different doses (0.5, 2 and 5 mg/kg). Each group had 5 rats except for a group of 2 mg/kg dose (n = 4). The blood samples (0.2 mL) were collected from the common carotid artery at 0, 0.25, 0.5, 1, 2, 3, 4, 6, 8, 10 and 24 h.
PTX concentrations in rat plasma were analyzed by Agilent HP1100 series system using a Capcell-pak C18 MG120 column (3 mm × 250 mm, 5 µm, Shiseido, Tokyo, Japan). The samples were eluted with mobile phase composed of acetonitrile and 0.1% phosphoric acid (1/1, v/v) at a flow rate of 0.5 mL/min for 30 min and detected at a wavelength of 227 nm. The HPLC-UV method was validated by FDA guidelines as follows: Specificity (PTX: 14.8 min; internal standard: 26.7 min), linearity over the concentration range between 0.01 and 10 µg/mL, lower limit of quantification (0.01 µg/mL) and intra-/inter-day precision and accuracy (2.4–9.1% and 92.1–102.7%, respectively). All other details for sample preparation and quantification of PTX concentrations in rat plasma were reported previously.
The following PK parameters of PTX after oral single dosing to rats were estimated by non-compartmental analysis using WinNonlin® Professional version 5.2 software (Pharsight Corporation, Mountain View, CA, USA): The area under the plasma concentration-time curve from 0 h to infinity (AUCinf), elimination half-life (t1/2), apparent volume of distribution after oral single dosing (Vz/F), oral clearance (Cl/F), maximum plasma concentration (Cmax) and the time required to reach Cmax (Tmax). The relative bioavailability (RB, %) of PTX was calculated with the following formula: RB ( % )=AUCinf po co−administraion/AUCinf po control×100
AUCinf po control is the AUCinf obtained from oral single administration of PTX alone, and AUCinf po co-administration is the AUCinf obtained from oral single co-administration of PTX and compound 5c.

[7] = design: method as in PMID 24373826; details: rats; cited from earlier work
[8] = design: method as in PMID 24373826; details: humans; cited from earlier work
[9] = 100 µM, 1 h incubation, mean ± SD, triplicate

SMILES: CCCOc1ccc(/C=C/C(=O)N2CCCCC2)cc1OC [Compound 5a, (E)-3-(3-methoxy-4-propoxyphenyl)-1-(piperidin-1-yl)prop-2-en-1-one]
- viability at 5 µM [1]: 96.5%
- viability at 10 µM [1]: 94.1%
- viability at 25 µM [1]: 96%
- viability at 50 µM [1]: 93.8%
- viability at 100 µM [1]: 87.8%
- melting point: 91 to 92 °C

SMILES: COc1cc(/C=C/C(=O)N2CCCCC2)ccc1OCC(C)C [Compound 5b, (E)-3-(4-isobutoxy-3-methoxyphenyl)-1-(piperidin-1-yl)prop-2-en-1-one]
- viability at 5 µM [1]: 101%
- viability at 10 µM [1]: 97.8%
- viability at 25 µM [1]: 96.1%
- viability at 50 µM [1]: 96.1%
- viability at 100 µM [1]: 92%
- melting point: 96 to 97 °C

SMILES: COc1cc(/C=C/C(=O)N2CCCCC2)ccc1OCc1ccccc1 [Compound 5c, (E)-3-(4-benzyloxy-3-methoxyphenyl)-1-(piperidin-1-yl)prop-2-en-1-one]
- viability at 5 µM [1]: 101%
- viability at 10 µM [1]: 98.5%
- viability at 25 µM [1]: 96.1%
- viability at 50 µM [1]: 96.9%
- viability at 100 µM [1]: 87.6%
- P-gp ATPase activity, ratio of blank (control) ([2]; 20 μM): 1.54
- P-gp ATPase activity, ratio of blank (control) ([2]; 50 μM): 2.48
- P-gp ATPase activity, ratio of blank (control) ([2]; 100 μM): 4.02
- Concentration dependence of P-gp ATPase activity ([2]; 20, 50 and 100 μM): stably increased ATPase activity in a concentration-dependent manner
- efflux of [3H]-DNM [3, 9]: 43.1 ± 4.6%
- IC50 of DNM as fraction of negative control (DNM alone) value [4]: about 1/5
- accumulation of [3H]-DNM [5]: 438.4 ± 4.9%
- Cl/F of PTX ([6]; PTX 25 mg/kg PO co-administered with compound 5c 2 mg/kg, rats): 4.10 ± 1.53 L/h
- Cl/F of PTX ([6]; PTX 25 mg/kg PO co-administered with compound 5c 5 mg/kg, rats): 4.53 ± 1.04 L/h
- Effect on PK parameters of PTX ([6]; compound 5c 0.5 mg/kg co-administered, compared to PO control (PTX alone)): did not alter any PK parameters of PTX
- Improvement of the BA of PTX ([6]; compound 5c 5 mg/kg co-administered with PTX in rats): approximately twofold

SMILES: CCCOc1ccc(/C=C/C(=O)N(C)C)cc1OC [Compound 5d, (E)-3-(3-methoxy-4-propoxyphenyl)-N,N-dimethylacrylamide]
- viability at 5 µM [1]: 102%
- viability at 10 µM [1]: 97.8%
- viability at 25 µM [1]: 97.1%
- viability at 50 µM [1]: 97.1%
- viability at 100 µM [1]: 96.2%
- melting point: 108 to 109 °C

SMILES: COc1cc(/C=C/C(=O)N(C)C)ccc1OCC(C)C [Compound 5e, (E)-3-(4-isobutoxy-3-methoxyphenyl)-N,N-dimethylacrylamide]
- viability at 5 µM [1]: 100%
- viability at 10 µM [1]: 99.4%
- viability at 25 µM [1]: 95.8%
- viability at 50 µM [1]: 95%
- viability at 100 µM [1]: 94.8%
- melting point: 109 to 111 °C
- efflux of [3H]-DNM [3, 9]: 39.9 ± 3.8%
- accumulation of [3H]-DNM [5]: 382.1 ± 20.4%

SMILES: CCCOc1ccc(/C=C/C(=O)N(C)Cc2ccccc2)cc1OC [Compound 5f, (E)-N-benzyl-3-(3-methoxy-4-propoxyphenyl)-N-methylacrylamide]
- viability at 5 µM [1]: 98.9%
- viability at 10 µM [1]: 99.4%
- viability at 25 µM [1]: 100%
- viability at 50 µM [1]: 96.9%
- viability at 100 µM [1]: 92.8%
- P-gp ATPase activity, ratio of blank (control) ([2]; 20 μM): 2.85
- P-gp ATPase activity, ratio of blank (control) ([2]; 50 μM): 3.12
- P-gp ATPase activity, ratio of blank (control) ([2]; 100 μM): 3.35
- IC50 of DNM as fraction of negative control (DNM alone) value [4]: about 1/5

SMILES: COc1cccc2c1C(=O)c1c(O)c3c(c(O)c1C2=O)C[C@@](O)(C(C)=O)C[C@@H]3O[C@H]1C[C@H](N)[C@H](O)[C@H](C)O1 [DNM, daunomycin, reference compound]
- efflux of [3H]-DNM ([3]; control: tritium labeled DNM alone, 1 h): 63.0 ± 3.3%
- IC50 ([4]; Homo sapiens, NCI/ADR-RES, negative control: DNM alone, incubation): 31.7 µM

SMILES: COc1cc(/C=C/C(=O)O)ccc1O [FA, Ferulic acid]
- Time within which FA is absorbed in the intestine [7]: 5 to 15 min
- Time within which FA is absorbed in the intestine [8]: ≤ 30 min

Further lines, with some results ahead:

- melting point: 135 to 136 °C
- P-gp ATPase activity, ratio of blank (control) ([2]; 20 μM): 1.26
- P-gp ATPase activity, ratio of blank (control) ([2]; 50 μM): 1.77
- P-gp ATPase activity, ratio of blank (control) ([2]; 100 μM): 5.19
SMILES: COc1cc(/C=C/C(=O)N(C)C)ccc1OCc1ccccc1 [Compound 5g, (E)-3-(4-benzyloxy-3-methoxyphenyl)-N,N-dimethylacrylamide]
- viability at 5 µM [1]: 104%
- viability at 10 µM [1]: 102%
- viability at 25 µM [1]: 100%
- viability at 50 µM [1]: 99.3%
- viability at 100 µM [1]: 102%
- IC50 of DNM as fraction of negative control (DNM alone) value [4]: about 1/5

- melting point: 163 to 164 °C
- P-gp ATPase activity, ratio of blank (control) ([2]; 20 μM): 3.99
- P-gp ATPase activity, ratio of blank (control) ([2]; 50 μM): 2.69
- P-gp ATPase activity, ratio of blank (control) ([2]; 100 μM): 2.79
SMILES: CCCOc1ccc(/C=C/C(=O)N2CCC(O)(c3ccccc3)CC2)cc1OC [Compound 5h, (E)-1-(4-hydroxy-4-phenylpiperidin-1-yl)-3-(3-methoxy-4-propoxyphenyl) prop-2-en-1-one]
- viability at 5 µM [1]: 103%
- viability at 10 µM [1]: 99.2%
- viability at 25 µM [1]: 94.6%
- viability at 50 µM [1]: 89.4%
- viability at 100 µM [1]: 89.6%
- efflux of [3H]-DNM [3, 9]: 43.3 ± 0.9%
- IC50 of DNM as fraction of negative control (DNM alone) value [4]: about 1/5
- accumulation of [3H]-DNM [5]: 426.1 ± 26.2%

- Cl/F of PTX ([6]; PTX 25 mg/kg PO alone, rats): 8.22 ± 1.84 L/h
- Cmax of PTX ([6]; PTX 25 mg/kg PO alone, rats): 187 ± 41 ng/mL
- AUC(0-inf) ([6]; male, Sprague-Dawley, rat, plasma, PTX 25 mg/kg PO alone, rats, read-out: AUCinf of PTX): 773 ± 169 ng·h/mL
- Vd/F ([6]; male, Sprague-Dawley, rat, plasma, PTX 25 mg/kg PO alone, rats, read-out: Vz/F of PTX): 35.1 ± 16.8 L
- half-life ([6]; male, Sprague-Dawley, rat, plasma, PTX 25 mg/kg PO alone, rats, read-out: t1/2 of PTX (converted)): 2.8 ± 0.86 h
SMILES: CC(=O)O[C@H]1C(=O)[C@@]2(C)[C@H]([C@H](OC(=O)c3ccccc3)[C@]3(O)C[C@H](OC(=O)[C@H](O)[C@@H](NC(=O)c4ccccc4)c4ccccc4)C(C)=C1C3(C)C)[C@]1(OC(C)=O)CO[C@@H]1C[C@@H]2O [PTX, Paclitaxel]
